Test results: ChEMBL document CHEMBL1240451, “Studies on chemical modification and biology of a natural product, gambogic acid (II): Synthesis and bioevaluation of gambogellic acid and its derivatives from gambogic acid as antitumor agents” (Eur J Med Chem, 2010)
The source made the active and inactive calls. No cut-off for these calls is given here.

Legend:
Bel-7402 [1] = experiment: Cytotoxicity against human Bel7402 cells after 48 hrs by MTT assay; format: functional, cell-based; conditions: Bel-7402, 48 h
A549 [2] = experiment: Ratio of compound IC50 to gambogic acid IC50 for human A549 cells; format: functional
HT-29 [3] = experiment: Ratio of compound IC50 to gambogic acid IC50 for human HT-29 cells; format: functional
BGC-823 [4] = experiment: Ratio of compound IC50 to gambogic acid IC50 for human BGC823 cells; format: functional
BGC-823 [5] = experiment: Cytotoxicity against human BGC823 cells after 48 hrs by MTT assay; format: functional, cell-based; conditions: BGC-823, 48 h
HT-29 [6] = experiment: Cytotoxicity against human HT-29 cells after 48 hrs by MTT assay; format: functional, cell-based; conditions: HT-29, 48 h
A549 [7] = experiment: cells; conditions: Homo sapiens, A549, 48 h
Description: Cytotoxicity against human A549 cells after 48 hrs by MTT assay

BGC-823 [8] = experiment: Induction of apoptosis human BGC823 cells assessed as increase of apoptotic cells after 20 hrs using Annexin-V/PI double-staining by flow cytometry (reference value: 3.9%); format: functional, cell-based
BGC-823 [9] = experiment: Induction of apoptosis human BGC823 cells assessed as nuclear fragmentation at up to 8 uM after 20 hrs using Annexin-V/PI double-staining by light microscopic analysis; format: functional, cell-based
BGC-823 [10] = experiment: Induction of apoptosis human BGC823 cells assessed as morphological changes at up to 8 uM after 48 hrs using Annexin-V/PI double-staining by light microscopic analysis; format: functional, cell-based
BGC-823 [11] = experiment: Induction of apoptosis human BGC823 cells assessed as increase of apoptotic cells at 4 uM after 20 hrs using Annexin-V/PI double-staining by flow cytometry (reference value: 3.9%); format: functional
BGC-823 [12] = experiment: Induction of apoptosis human BGC823 cells assessed as increase of apoptotic cells at 8 uM after 20 hrs using Annexin-V/PI double-staining by flow cytometry (reference value: 3.9%); format: functional
Bel-7402 [13] = experiment: Ratio of compound IC50 to gambogic acid IC50 for human Bel7402 cells; format: functional
BGC-823 [14] = experiment: Induction of apoptosis human BGC823 cells assessed as increase of apoptotic cells at 2 uM after 20 hrs using Annexin-V/PI double-staining by flow cytometry (reference value: 3.9%); format: functional

| IC50 (A549 [7]) [nM] | Structure (SMILES) | IC50 (Bel-7402 [1]) [nM] | Ratio IC50 (A549 [2]) | Ratio IC50 (HT-29 [3]) | Ratio IC50 (BGC-823 [4]) | IC50 (BGC-823 [5]) [nM] | IC50 (HT-29 [6]) [nM] | Activity (BGC-823 [8]) | Activity (BGC-823 [9]) | Activity (BGC-823 [10]) | Activity (BGC-823 [11]) [%] | Activity (BGC-823 [12]) [%] | Ratio IC50 (Bel-7402 [13]) | Activity (BGC-823 [14]) [%] |
| --- | --- | --- | --- | --- | --- | --- | --- | --- | --- | --- | --- | --- | --- | --- |
| 1560 | COC(=O)/C(C)=C\C[C@@]12OC(C)(C)[C@H]3C[C@@H](C=C4C(=O)c5c(O)c6c(c(C/C=C(\C)CO)c5O[C@]431)O[C@]1(C)CCC(=C(C)C)C6C1)C2=O | 11000 | 2 | 14 | 2 | 1420 | 140 |  |  |  |  |  |  |  |
| 1120 | C=C(C)C1CC[C@]2(C)CC1c1c(O)c3c(c(CC=C(C)C)c1O2)O[C@]12C(=C[C@@H]4C[C@@H]1C(C)(C)O[C@@]2(C/C=C(/C)C(=O)O)C4=O)C3=O (some centres undefined) [GAMBOGELLIC ACID] | 6480 | 2 |  |  | 460 | 1340 |  |  |  |  |  |  |  |
| 2340 | COC(=O)/C(C)=C\C[C@@]12OC(C)(C)[C@H]3C[C@@H](C=C4C(=O)c5c(O)c6c(c(CC7OC7(C)C)c5O[C@]431)O[C@]1(C)CCC(=C(C)C)C6C1)C2=O (some centres undefined) | 8100 |  | 14 |  | 2530 | 120 |  |  |  |  |  |  |  |
| 1790 | C=C(C)C1CC[C@]2(C)CC1c1c(O)c3c(c(CC=C(C)C)c1O2)O[C@]12C(=C[C@@H]4C[C@@H]1C(C)(C)O[C@@]2(C/C=C(/C)C(=O)OC)C4=O)C3=O (some centres undefined) | 4560 | 2 | 4 |  | 2610 | 810 |  |  |  |  |  |  |  |
| 3180 | C/C(=C/C[C@@]12OC(C)(C)[C@H]3C[C@@H](C=C4C(=O)c5c(O)c6c(c(CCC(C)(C)Cl)c5O[C@]431)O[C@]1(C)CCC(C3(C)CO3)C6C1)C2=O)C(=O)O (some centres undefined) | 440 |  |  |  | 280 | 1330 | Dose-dependent effect | Active | Active | 6.2 | 25.7 | 4.7 | 4.2 |
| 2420 | COC(=O)/C(C)=C\C[C@@]12OC(C)(C)[C@H]3C[C@@H](C=C4C(=O)c5c(O)c6c(c(CC=C(C)C)c5O[C@]431)O[C@]1(C)CCC(C3(C)CO3)C6C1)C2=O (some centres undefined) | 4380 |  | 4 | 2 | 920 | 490 |  |  |  |  |  |  |  |
| 4630 | C=C(C)C1CC[C@]2(C)CC1c1c(O)c3c(c(CCC(C)(C)Cl)c1O2)O[C@]12C(=C[C@@H]4C[C@@H]1C(C)(C)O[C@@]2(C/C=C(/C)C(=O)OC)C4=O)C3=O (some centres undefined) | 2630 |  |  | 2 | 1980 | 4550 |  |  |  |  |  |  |  |

Second part, the compound before the results:

| Structure (SMILES) | IC50 (A549 [7]) [nM] | IC50 (Bel-7402 [1]) [nM] | Ratio IC50 (A549 [2]) | Ratio IC50 (HT-29 [3]) | Ratio IC50 (BGC-823 [4]) | IC50 (BGC-823 [5]) [nM] | IC50 (HT-29 [6]) [nM] | Activity (BGC-823 [8]) | Activity (BGC-823 [9]) | Activity (BGC-823 [10]) | Activity (BGC-823 [11]) [%] | Activity (BGC-823 [12]) [%] | Ratio IC50 (Bel-7402 [13]) | Activity (BGC-823 [14]) [%] |
| --- | --- | --- | --- | --- | --- | --- | --- | --- | --- | --- | --- | --- | --- | --- |
| C/C(=C/C[C@@]12OC(C)(C)[C@H]3C[C@@H](C=C4C(=O)c5c(O)c6c(c(CCC(C)(C)Cl)c5O[C@]431)O[C@]1(C)CC(=O)C(C(C)C)C6C1)C2=O)C(=O)O (some centres undefined) | 27600 | 4120 |  |  |  | 2930 | 5600 |  |  |  |  |  |  |  |
| COC(=O)/C(C)=C\C[C@@]12OC(C)(C)[C@H]3C[C@@H](C=C4C(=O)c5c(O)c6c(c(CC=C(C)C)c5O[C@]431)O[C@]1(C)CCC(=C(C)C)C6C1)C2=O | 5550 | 7860 |  | 4 |  | 6620 | 540 |  |  |  |  |  |  |  |
| C=C(C)C1CC[C@]2(C)CC1c1c(O)c3c(c(CCC(C)(C)Cl)c1O2)O[C@]12[C@@H]4C[C@H](C(=O)[C@]1(C/C=C(/C)C(=O)O)OC4(C)C)C(O)C2(O)C3=O (some centres undefined) | > 100000 | > 100000 |  |  |  | > 100000 | > 100000 |  |  |  |  |  |  |  |
| C=C(C)C1CC[C@]2(C)CC1c1c(O)c3c(c(C/C=C(\C)CO)c1O2)O[C@]12C(=C[C@@H]4C[C@@H]1C(C)(C)O[C@@]2(C/C=C(/C)C(=O)OC)C4=O)C3=O (some centres undefined) | 980 | 13000 | 2 | 14 | 2 | 620 | 240 |  |  |  |  |  |  |  |
| C=C(C)C1CC[C@]2(C)CC1c1c(O)c3c(c(CCC(C)(C)Cl)c1O2)O[C@]12C(=C[C@@H]4C[C@@H]1C(C)(C)O[C@@]2(C/C=C(/C)C(=O)O)C4=O)C3=O (some centres undefined) | 1240 | 18100 | 2 |  |  | 4000 | 1640 |  |  |  |  |  |  |  |
| CC(C)=CCC[C@]1(C)C=Cc2c(O)c3c(c(CC=C(C)C)c2O1)O[C@]12C(=C[C@@H]4C[C@H]1C(C)(C)O[C@@]2(C/C=C(/C)C(=O)O)C4=O)C3=O [GAMBOGIC ACID] | 3650 | 2080 |  |  |  | 2830 | 3520 |  |  |  |  |  |  |  |
